According to patent US20180193294A1, “Dehydroabietic acid (DHAA) derivatives for use as ion channel openers” (priority 2015, published 2018):

Target: 3R Shaker K channel (Drosophila melanogaster, UniProt P08510, A359R/M356R)
Assay: physchem
Type: cell-based
Details: 100 μM; for G(V) shift: Table 1
Description: A 3R Shaker K channel is a modified Shaker K channel where residues 356 and 359 are mutated to arginines.
All animal experiments were approved by the local Animal Care and Use Committee and followed international guidelines. A modified Shaker H4 channel^30, with removed N-type inactivation (ShH4IR)^31, here called the wild type (WT) channel, was expressed in oocytes. In addition, a modified 3R Shaker K channel where two introduced positive charged arginines (M356R and A359R) in addition to one native arginine (R362) makes the channel more sensitive to DHA^16, was expressed in oocytes and in a CHO—K1 stable cell line.
African clawed frogs (Xenopus laevis) were anesthetized with 1.4 g/L ethyl 3-aminobenzoate methanesulfonate salt (tricaine). After an incision through the abdomen a batch of oocytes were removed. Clusters of oocytes were separated by incubation for ˜1 h in a Ca-free O—R2 solution (in mM: 82.5 NaCl, 2 KCl, 5 HEPES, and 1 MgCl2; pH adjusted to 7.4 by NaOH) containing Liberase Blendzyme. The oocytes were then incubated at 8° C. in a modified Barth's solution (MBS; in mM: 88 NaCl, 1 KCl, 2.4 NaHCO3, 15 HEPES, 0.33 Ca(NO3)2, 0.41 CaCl2, and 0.82 MgSO4; pH adjusted to 7.6 by NaOH) supplemented with penicillin (25 U/ml), streptomycin (25 μg/ml), and sodium pyruvate (2.5 mM) 2-24 hours before injection. Fifty nl of cRNA (50 pg) were injected into each oocyte using a Nanoject injector (Drummond Scientific, Broomall, Pa.). Injected oocytes were kept at 8° C. in MBS until one day before electrophysiological recordings, when they were incubated at 16° C. All chemicals were supplied from Sigma-Aldrich (Stockholm, Sweden) if not stated otherwise.
All manual electrophysiological recordings were performed at room temperature (20-23° C.), using a GeneClamp 500B amplifier (for oocytes) or a Axopatch 200B amplifier (for manual patch clamp of CHO—K1 cells and DRG neurons) and a Digidata 1440A digitizer and pClamp 10 software (all from Molecular Devices, Inc., Sunnyvale, Calif., USA). Compounds were dissolved to 100 mM in 99.5% EtOH and stored at −20° C. Compounds were diluted in extracellular solution to the desired test concentration.
The oocyte was placed in a bath surrounded by 1K extracellular solution that contained (in mM): 88 NaCl, 1 KCl, 15 HEPES, 0.4 CaCl2, and 0.8 MgCl2, pH adjusted to 7.4 by NaOH (reaching a sodium concentration of ˜100 mM). Control solution was added to the bath with a gravity driven perfusion system. Compound solution was added to the bath manually with a syringe. Two glass microelectrodes were inserted into the oocyte using micromanipulators. […] All channels were closed when the potential was clamped to −80 mV and this voltage was set as the holding potential. Currents were evoked from the holding potential of −80 mV by 100-ms long, 5-mV steps ranging from −80 up to +50 mV (WT) and +70 mV (3R).
Conductance GK(V) was calculated as GK(V)=[…], (Eq. 1) where IK is the average current from the steady-state phase at the end of each 100-ms pulse, V is the membrane voltage, and Vrev is the reversal potential for K^+, (set to −80 mV for the oocytes, and calculated to be −89 mV for the CHO—K1 cells).
G(V)=A/(1+exp((V1/2−V)/s))^n (Eq. 2) where A is amplitude of the curve, V is the absolute membrane voltage, V1/2 is the midpoint, s is the slope and n is an exponent set to 4^17. The compound-induced G(V) shift was determined at the 10% level of the maximum conductance in control solution^17. The compound-induced G(V) shift in CHO—K1 was quantified by subtracting the control V1/2 from the compound V1/2 when n was set to 1.
Data for concentration and pH dependent G(V) shifts (ΔV) in oocytes were fit with a dose-response equation ΔV=ΔVmax/(1+c1/2/c), (Eq. 3) where Δvmax is the maximal shift, c1/2 is half maximal effective concentration/pKa value and c is the concentration.

3R Shaker K channel, sequence (P08510 whole entry M356R/A359R): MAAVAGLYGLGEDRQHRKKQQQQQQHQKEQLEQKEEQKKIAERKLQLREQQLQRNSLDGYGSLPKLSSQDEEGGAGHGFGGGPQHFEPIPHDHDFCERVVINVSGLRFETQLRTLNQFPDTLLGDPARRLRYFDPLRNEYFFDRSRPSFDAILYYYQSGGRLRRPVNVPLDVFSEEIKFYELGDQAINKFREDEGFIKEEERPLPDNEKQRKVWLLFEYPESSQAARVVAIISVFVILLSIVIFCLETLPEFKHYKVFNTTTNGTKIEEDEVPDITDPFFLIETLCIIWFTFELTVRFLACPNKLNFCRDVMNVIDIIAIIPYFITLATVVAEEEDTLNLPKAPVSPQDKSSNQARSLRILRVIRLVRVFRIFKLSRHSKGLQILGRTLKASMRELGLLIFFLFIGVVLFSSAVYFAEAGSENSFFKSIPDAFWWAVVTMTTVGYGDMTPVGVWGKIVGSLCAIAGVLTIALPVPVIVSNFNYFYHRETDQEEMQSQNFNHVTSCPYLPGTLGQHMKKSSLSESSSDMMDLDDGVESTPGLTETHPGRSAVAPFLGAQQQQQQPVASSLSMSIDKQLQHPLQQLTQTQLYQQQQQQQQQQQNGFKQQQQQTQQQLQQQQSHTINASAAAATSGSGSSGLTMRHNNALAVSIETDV

SMILES	G(V) shift (pH 7.4, Xenopus oocytes) [mV]	further results
CC(C)c1cc2c(cc1I)[C@@]1(C)CCC[C@@](C)(C(=O)O)[C@@H]1CC2=O [Wu62, (1R,4aS,10aR)-6-iodo-7-isopropyl-9-oxo-1,4a-dimethyl-1,2,3,4,4a,9,10,10a-octahydrophenanthrene-1-carboxylic acid]	−13.7	
CC(C)c1cc2c(cc1F)[C@@]1(C)CCC[C@@](C)(C(=O)O)[C@@H]1CC2=O [Wu116]	−4.4	
C[C@@]1(C(=O)O)CCC[C@]2(C)c3c(Cl)c(Cl)c(Cl)c(Cl)c3CCC12 (stereo partly drawn) [Wu133, (1R,4aS)-5,6,7,8-tetrachloro-1,4a-dimethyl-1,2,3,4,4a,9,10,10a-octahydrophenanthrene-1-carboxylic acid]	−25.6	
CO/N=C1\CC2[C@](C)(C(=O)O)CCC[C@]2(C)c2cc(I)c(C(C)C)cc21 (stereo partly drawn) [Wu64, (1R,4aS,E)-6-iodo-7-isopropyl-9-(methoxyimino)-1,4a-dimethyl-1,2,3,4,4a,9,10,10a-octahydrophenanthrene-1-carboxylic acid]	−22.2	
CC(C)c1ccc2c(c1I)C(=O)C[C@H]1[C@](C)(C(=O)O)CCC[C@]21C [Wu68, (1R,4aS,10aR)-8-iodo-7-isopropyl-1,4a-dimethyl-9-oxo-1,2,3,4,4a,9,10,10a-octahydrophenanthrene-1-carboxylic acid]	−26.0	
CC(C)c1ccc2c(c1I)CCC1[C@](C)(C(=O)O)CCC[C@]21C (stereo partly drawn) [Wu61, (1R,4aS,E)-8-iodo-7-isopropyl-1,4a-dimethyl-1,2,3,4,4a,9,10,10a-octahydrophenanthrene-1-carboxylic acid]	−18.3	
C=CCO/N=C1\CC2[C@](C)(C(=O)O)CCC[C@]2(C)c2cc(F)c(C(C)C)cc21 (stereo partly drawn) [Wu52, (1R,4aS,E)-9-((allyloxy)imino)-6-fluoro-7-isopropyl-1,4a-dimethyl-1,2,3,4,4a,9,10,10a-octahydrophenanthrene-1-carboxylic acid]	−20.2	
CC(C)c1c(Cl)c(Cl)c2c(c1Cl)C(=O)CC1[C@](C)(C(=O)O)CCC[C@]21C (some centres unmarked) [Wu46]	−2.5	
CC(C)c1c(Cl)cc2c(c1Cl)C(=NO)CC1C(C)(C(=O)O)CCCC21C (centres unmarked) [Wu42]	−6.1	
CC(C)c1c(Cl)c(Cl)c2c(c1Cl)C(=NOCc1ccccc1)CC1C(C)(C(=O)O)CCCC21C (centres unmarked) [Wu51]	−1.9	
C=CCON=C1CC2C(C)(C(=O)O)CCCC2(C)c2cc(Cl)c(C(C)C)c(Cl)c21 (centres unmarked) [Wu40]	−13.4	
CC(C)c1ccc2c(c1)C(=NOCCCc1ccccc1)CC1C(C)(C(=O)O)CCCC21C (centres unmarked) [Compound K10]	−3.0	effect on G(V) shift / current compared with DHAA (C7-modified DHAA, pH 7.4): decreased potency compared to DHAA
CON=C1CC2C(C)(C(=O)O)CCCC2(C)c2c(Cl)c(Cl)c(C(C)C)c(Cl)c21 (centres unmarked) [Wu47]	−13.4	
CC(C)c1cc2c(cc1Br)C1(C)CCCC(C)(C(=O)O)C1CC2=O (centres unmarked) [Wu30]	−7.0	
CC(C)c1cc2c(cc1Br)[C@@]1(C)CCC[C@@](C)(C(=O)O)C1CC2 (stereo partly drawn) [Wu24, (1R,4aS,E)-6-bromo-7-isopropyl-1,4a-dimethyl-1,2,3,4,4a,9,10,10a-octahydrophenanthrene-1-carboxylic acid]	−12.5	increase in G(V) shift relative to DHAA (ΔVc7, ΔVhalo, ΔVtot) (pH 7.4): −0.3 mV; compound-induced G(V) shift (mean±SEM) (pH 7.4, Xenopus oocytes): −12.4 mV
CC(C)c1cc(Cl)c2c(c1)CCC1C(C)(C(=O)O)CCCC21C (centres unmarked) [Wu100]	−2.7	
CC(C)c1cc(Cl)c2c(c1O)CC[C@H]1[C@](C)(C(=O)O)CCC[C@]21C [Wu106]	−3.4	
CC(C)c1cc2c(cc1Cl)[C@@]1(C)CCC[C@@](C)(C(=O)O)C1C/C2=N\O (stereo partly drawn) [Wu21, (1R,4aS,E)-6-chloro-7-isopropyl-9-hydroxyimino-1,4a-dimethyl-1,2,3,4,4a,9,10,10a-octahydrophenanthrene-1-carboxylic acid]	−13.8	

SMILES	G(V) shift (pH 7.4, Xenopus oocytes) [mV]	further results
CC(C)c1cc2c(cc1I)C1(C)CCCC(C)(C(=O)O)C1CC2=NOCc1ccccc1 (centres unmarked) [Wu87]	−6.0	
C[C@]1(C(=O)O)CCC[C@]2(C)c3cc(Cl)ccc3CCC12 (stereo partly drawn) [Wu135, (1S,4aS)-6-chloro-1,4a-dimethyl-1,2,3,4,4a,9,10,10a-octahydrophenanthrene-1-carboxylic acid]	−12.0	
C=CCON=C1CC2C(C)(C(=O)O)CCCC2(C)c2c(Cl)cc(C(C)C)c(Cl)c21 (centres unmarked) [Wu114]	−13.3	
CC=Cc1c(C(C)C)ccc2c1CCC1[C@](C)(C(=O)O)CCC[C@]21C (some centres unmarked) [Wu85]	−1.9	
CON=C1C[C@H]2[C@](C)(C(=O)O)CCC[C@]2(C)c2cc(Cl)c(C(C)C)c(Cl)c21 [Wu41, (1R,4aS,10aR)-6,8-dichloro-7-isopropyl-9-(methoxyimino)-1,4a-dimethyl-1,2,3,4,4a,9,10,10a-octahydrophenanthrene-1-carboxylic acid]	−22.1	
CC(C)c1ccc2c(c1Cl)C(=NOCc1ccccc1)CC1C(C)(C(=O)O)CCCC21C (centres unmarked) [Wu18]	−1.3	
C=CCO/N=C1\CC2[C@](C)(C(=O)O)CCC[C@]2(C)c2ccc(C(C)C)c(Cl)c21 (stereo partly drawn) [Wu19, (1R,4aS,E)-9-((allyloxy)imino)-8-chloro-7-isopropyl-1,4a-dimethyl-1,2,3,4,4a,9,10,10a-octahydrophenanthrene-1-carboxylic acid]	−16.1	
CC(C)c1c(Cl)cc2c(c1Cl)C(=NOCc1ccccc1)CC1C(C)(C(=O)O)CCCC21C (centres unmarked) [Wu43]	−4.2	
C=Cc1cc2c(cc1C(C)C)C(=O)C[C@H]1[C@](C)(C(=O)O)CCC[C@]21C [Wu118]	0.2	
CC(C)c1cc(Cl)c2c(c1)C(O)C[C@H]1[C@](C)(C(=O)O)CCC[C@]21C (some centres unmarked) [Wu102]	−2.8	
C[C@]1(C(=O)O)CCC[C@]2(C)c3ccccc3CCC12 (stereo partly drawn) [Wu129, (1S,4aS)-1,4a-dimethyl-1,2,3,4,4a,9,10,10a-octahydrophenanthrene-1-carboxylic acid]	−5.1	
CC(C)c1ccc2c(c1Br)C(=NO)CC1C(C)(C(=O)O)CCCC21C (centres unmarked) [Wu88]	−5.6	
CO/N=C1\CC2[C@](C)(C(=O)O)CCC[C@]2(C)c2cc(C3CC3)c(C(C)C)cc21 (stereo partly drawn) [Wu122, (1R,4aS,E)-6-cyclopropyl-7-isopropyl-9-(methoxyimino)-1,4a-dimethyl-1,2,3,4,4a,9,10,10a-octahydrophenanthrene-1-carboxylic acid]	−32.3	
C[C@@]1(C(=O)O)CCC[C@]2(C)c3ccc(Cl)c(Cl)c3CCC12 (stereo partly drawn) [Wu115, (1R,4aS)-7,8-dichloro-1,4a-dimethyl-1,2,3,4,4a,9,10,10a-octahydrophenanthrene-1-carboxylic acid]	−24.2	
CO/N=C1\C[C@H]2[C@](C)(C(=O)O)CCC[C@]2(C)c2c(Cl)cc(C(C)C)cc21 [Wu105, (1R,4aS,10aR)-5-chloro-7-isopropyl-9-(methoxyimino)-1,4a-dimethyl-1,2,3,4,4a,9,10,10a-octahydrophenanthrene-1-carboxylic acid]	−23.2	
CO/N=C1\CC2[C@](C)(C(=O)O)CCC[C@]2(C)c2cc(F)c(C(C)C)cc21 (stereo partly drawn) [Wu55, (1R,4aS,E)-6-fluoro-7-isopropyl-9-(methoxyimino)-1,4a-dimethyl-1,2,3,4,4a,9,10,10a-octahydrophenanthrene-1-carboxylic acid]	−19.9	
C=CCON=C1CC2C(C)(C(=O)O)CCCC2(C)c2c(Cl)c(Cl)c(C(C)C)c(Cl)c21 (centres unmarked) [Wu49]	−7.3	
